Test results: patent US11066409B2, “Bicyclic nitrogen-containing heterocyclic derivatives and pharmaceutical composition comprising the same” (Shionogi & Co., Ltd., priority 2016, dated 2021)

Biological target: human P2X7 receptor (Homo sapiens (Human), UniProt Q99572, R270H)
Experiment: Evaluation of a human P2X7 receptor inhibitory activity (Yo-Pro uptake, BzATP stimulation, FLIPR TETRA)
Type: cell-based
Details: 1321N1 cells stably expressing human P2X7 receptor, Yo-Pro fluorescence
Description: Evaluation of a human P2X7 receptor inhibitory activity Stably expressing cell line (1321N1 cell transfected with the human P2X7 receptor gene (GenBank accession number NM_002562.5 including T606C and G952A SNP)) was used. The cells were seeded in a 384-well microtiter plate at a concentration of 8000 cells/well and cultured in the medium (10% fetal bovine serum, 25 mM HEPES, 1% penicillin and streptomycin in DMEM) for one day at 37° C. under 5% carbon dioxide atmosphere. After replacing with 20 μL of the HBSS buffer (20 mM HEPES, 55.6 mM D-glucose, 1× HBSS(−), pH7.4-7.5), 15 μL of 17.3 μM Yo-Pro solution in the HBSS buffer was added. The plate was placed in high-throughput cellular screening system FLIPR TETRA (Molecullar Devices, LLC.) and 15 μL of 130 μM BzATP solution in the HBSS buffer was added. Measurement of fluorescence intensity by FLIPR TETRA was started. After eight minutes, 15 μL of DMSO solutions containing different concentrations of the compound of the present invention as prepared by dilution with the HBSS buffer were dispensed to each well through the built-in automatic dispenser, and the measurement of fluorescence intensity was continued for 20 minutes. The maximum fluorescence intensity without the compound of the present invention is calculated as 0% inhibition and the maximum fluorescence intensity when the reference compound was added is calculated as 100% inhibition. Changing values of fluorescence intensity by the compound of the present invention were calculated by difference between maximum and minimum fluorescence intensity for 20 minutes. Inhibition ratios (%) were calculated from the following equation:
[formula] IC50 was calculated using logistic approximation.
As for IC50 value, value to below 10 nmol/L is represented as “A”, value from 10 nmol/L to below 100 nmol/L is represented as “B”, value from 100 nmol/L to below 500 nmol/L is represented as “C”, and value from 500 nmol/L to below 1 μmol/L is represented as “D”.

Sequence of human P2X7 receptor (Q99572 whole entry R270H): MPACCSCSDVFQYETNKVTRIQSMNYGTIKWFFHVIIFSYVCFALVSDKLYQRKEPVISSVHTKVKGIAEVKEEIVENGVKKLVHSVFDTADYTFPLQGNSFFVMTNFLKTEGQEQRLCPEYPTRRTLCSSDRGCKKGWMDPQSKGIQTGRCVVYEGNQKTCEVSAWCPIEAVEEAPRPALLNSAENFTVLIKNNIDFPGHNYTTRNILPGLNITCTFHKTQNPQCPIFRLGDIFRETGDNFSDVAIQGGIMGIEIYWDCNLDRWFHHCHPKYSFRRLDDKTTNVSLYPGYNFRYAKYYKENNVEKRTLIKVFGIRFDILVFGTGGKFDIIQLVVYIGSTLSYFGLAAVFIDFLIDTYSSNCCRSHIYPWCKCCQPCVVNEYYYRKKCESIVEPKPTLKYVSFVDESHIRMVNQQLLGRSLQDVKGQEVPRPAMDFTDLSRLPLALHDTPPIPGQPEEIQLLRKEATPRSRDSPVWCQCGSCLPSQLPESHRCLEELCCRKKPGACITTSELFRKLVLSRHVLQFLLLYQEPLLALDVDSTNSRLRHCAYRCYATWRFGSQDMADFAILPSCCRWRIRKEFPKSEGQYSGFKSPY

| SMILES | IC50 (class symbols) [nM] | IC50 [nM] |
| --- | --- | --- |
| CCN1C(=O)N=C(Nc2cc(C)c(C)cc2C)N2C1=NCC2c1ccccc1 (centres unmarked) [Compound I-0111] | < 10 |  |
| CCN1C(=O)N=C(Nc2cc(OC)ccc2C)N2C1=NCC2c1ccc(F)cc1 (centres unmarked) [Compound I-0139] | 10 to 100 |  |
| COc1nc(C)c(Nc2nc(=O)c(F)c3n2C(c2cc(F)cc(F)c2)CC3)cc1F (centres unmarked) [Compound I-0141] | 10 to 100 |  |
| COc1cnc(C)c(/N=c2\[nH]c(=O)c(F)c3n2C(c2ccc(F)cc2)CC3)c1 (centres unmarked) [Compound I-0078] | 10 to 100 |  |
| Cc1c(Cl)cccc1Nc1nc(=O)cc2n1C(c1ccccc1)CCO2 (centres unmarked) [Compound I-0006] | 10 to 100 |  |
| COc1cc(C)c(Nc2nc(=O)cc3n2C(c2cc(F)c(F)c(F)c2)CC3)cc1OC (centres unmarked) [Compound I-0021] | 10 to 100 |  |
| COc1cc(Nc2nc(=O)cc3n2C(c2cc(F)cc(F)c2)CN3)c(C)cc1F (centres unmarked) [Compound I-0128] | 10 to 100 |  |
| COc1cc(Nc2nc(=O)c(OC)c3n2C(c2ccccc2)CC3)c(C)cc1F (centres unmarked) [Compound I-0045] | 10 to 100 |  |
| COc1ccc(Nc2nc(=O)c(Br)c3n2C(c2cc(F)cc(F)c2)CC3)c(C)n1 (centres unmarked) [Compound I-0086] | 10 to 100 |  |
| COc1ccc(NC2=NC(=O)N(C)C3=NCC(c4cc(F)cc(F)c4)N23)c(C)n1 (centres unmarked) [Compound I-0144] | 10 to 100 |  |
| COc1ccc(Nc2nc(=O)cc3n2C(c2ccccc2)CC3)cc1OC (centres unmarked) [Compound I-0019] | < 10 |  |
| COc1ccc(Nc2nc(=O)c(C)c3n2C(c2cc(F)cc(F)c2)CC3)c(C)n1 (centres unmarked) [Compound I-0087] | 10 to 100 |  |
| Cc1cc(Nc2nc(=O)cc3n2C(c2ccc(F)c(Cl)c2)CC3)c(C)cc1Cl (centres unmarked) [Compound I-0012] | < 10 |  |
| COc1c2n(c(Nc3cc4sc(C)nc4cc3C)nc1=O)C(c1ccccc1)CC2 (centres unmarked) [Compound I-0032] |  | 16 |
| O=c1cc2n(c(Nc3cccc4ncccc34)n1)C(c1ccccc1)CO2 (centres unmarked) [Compound I-0001] |  | 16 |
| CCc1ccc(CO)cc1NC1=NC(=O)NC2=NCC(c3cc(F)c(F)c(F)c3)N21 (centres unmarked) [Compound I-0180] | 10 to 100 |  |
| Cc1c(Cl)cccc1Nc1nc(=O)cc2n1C(c1ccccc1)CCC2 (centres unmarked) [Compound I-0005] | 10 to 100 |  |
| COc1nc(C)c(Nc2nc(=O)cc3n2C(c2cc(F)cc(F)c2)CC3)cc1C (centres unmarked) [Compound I-0051] | 10 to 100 |  |
| COc1ccc(/N=c2\[nH]c(=O)c(F)c3n2C(c2cc(F)cc(F)c2)CC3)c(C)n1 (centres unmarked) [Compound I-0095] | 10 to 100 |  |
| Cc1cc(OC(F)F)ccc1/N=c1\[nH]c(=O)cc2n1C(c1cc(F)cc(F)c1)CC2 (centres unmarked) [Compound I-0056] | 10 to 100 |  |
| C=Cc1c2n(c(Nc3ccc(OC)nc3C)nc1=O)C(c1cc(F)cc(F)c1)CC2 (centres unmarked) [Compound I-0091] |  | 17 |
| Cc1cc2c(cc1Nc1nc(=O)cc3n1C(c1ccc(F)cc1)CC3)COC2 (centres unmarked) [Compound I-0067] | < 10 |  |
| Cc1ccc(C#N)cc1NC1=NC(=O)N(C)C2=NCC(c3cc(F)cc(F)c3)N12 (centres unmarked) [Compound I-0146] | 10 to 100 |  |

| SMILES | IC50 (class symbols) [nM] | IC50 [nM] |
| --- | --- | --- |
| COc1cc(NC2=NC(=O)N(C)C3=NCC(c4cc(F)c(F)c(F)c4)N23)c(C)cc1C#N (centres unmarked) [Compound I-0209] | 10 to 100 |  |
| Cc1cc2c(cc1Nc1nc(=O)cc3n1C(c1ccccc1)CC3)COC2 (centres unmarked) [Compound I-0040] | 10 to 100 |  |
| COc1ccc(Nc2nc(=O)cc3n2C(c2ccccc2)CN3C)c(C)c1 (centres unmarked) [Compound I-0104] | 10 to 100 |  |
| COc1ccc(Nc2nc(=O)c(F)c3n2C(c2cc(F)cc(F)c2)CC3)c(C)c1F (centres unmarked) [Compound I-0108] | 10 to 100 |  |
| Cc1ccc(NC2=NC(=O)N(C)C3=NCC(c4ccc(F)c(F)c4)N23)c(C)n1 (centres unmarked) [Compound I-0115] | 100 to 500 |  |
| CCOc1ccc(Nc2nc(=O)c(F)c3n2C(c2cc(F)cc(F)c2)CC3)c(CC)n1 (centres unmarked) [Compound I-0096] | 10 to 100 |  |
| COc1cc(Nc2nc(=O)cc3n2C(c2ccccc2)CC3)c(C)cc1F (centres unmarked) [Compound I-0022] | < 10 |  |
| COc1cnc(C)c(Nc2nc(=O)c(F)c3n2C(c2cc(F)cc(F)c2)CC3)c1 (centres unmarked) [Compound I-0123] | 10 to 100 |  |
| COc1ccc(C)c(NC2=NC(=O)N(C)C3=NCC(c4ccc(F)c(F)c4)N23)c1 (centres unmarked) [Compound I-0124] | 10 to 100 |  |
| COCC(F)(F)Oc1ccc(C)c(NC2=NC(=O)N(C)C3=NCC(c4cc(F)c(F)c(F)c4)N23)c1 (centres unmarked) [Compound I-0203] | 10 to 100 |  |
| COc1cc(C)c(NC2=NC(=O)N(C)C3=NCC(c4cc(F)cc(F)c4)N23)cc1OC (centres unmarked) [Compound I-0132] | 10 to 100 |  |
| Cc1cc(F)c(C#N)cc1NC1=NC(=O)N(C)C2=NCC(c3cc(F)c(F)c(F)c3)N12 (centres unmarked) [Compound I-0211] | 10 to 100 |  |
| Cc1ccc(OC[C@H]2C[C@H](O)C2)cc1NC1=NC(=O)N(C)C2=NCC(c3cc(F)c(F)c(F)c3)N12 (some centres unmarked) [Compound I-0190] | 10 to 100 |  |
| COc1cc(C)c(Nc2nc(=O)cc3n2C(c2ccccc2)CC3)cc1OC (centres unmarked) [Compound I-0010] | < 10 |  |
| CCN1C(=O)N=C(Nc2cc(C)c(C)cc2C)N2C1=NCC2c1ccccc1 (centres unmarked) [Compound I-0107] |  | 25 |
| COc1cc(C)c(Nc2nc(=O)nc3n2C(c2cc(F)c(F)c(F)c2)CN3)cc1OC (centres unmarked) [Compound I-0153] | 10 to 100 |  |
| COc1cc(NC2=NC(=O)N(C)C3=NCC(c4cc(F)cc(F)c4)N23)c(C)cc1F (centres unmarked) [Compound I-0148] | 10 to 100 |  |
| CCN1C(=O)N=C(Nc2cc(C)c(C)cc2C)N2C1=NCC2c1ccc(F)cc1 (centres unmarked) [Compound I-0109] | 10 to 100 |  |
| COc1ccc(Nc2nc(=O)cc3n2C(c2cc(F)cc(F)c2)CC3)c(C)c1 (centres unmarked) [Compound I-0038] | < 10 |  |
| Cc1cc2cnn(CCO)c2cc1NC1=NC(=O)N(C)C2=NCC(c3cc(F)c(F)c(F)c3)N12 (centres unmarked) [Compound I-0187] | 10 to 100 |  |
| COc1ccc(C)c(NC2=NC(=O)N(C)C3=NCC(c4cc(F)cc(F)c4)N23)c1 (centres unmarked) [Compound I-0131] | 10 to 100 |  |
| Cc1cc2c(cc1/N=c1\[nH]c(=O)c(F)c3n1C(c1ccc(F)cc1F)CC3)COC2 (centres unmarked) [Compound I-0073] | 10 to 100 |  |
| Cc1cc(OC(F)F)ccc1/N=c1\[nH]c(=O)c(F)c2n1C(c1ccc(F)cc1F)CC2 (centres unmarked) [Compound I-0057] | 10 to 100 |  |

| SMILES | IC50 (class symbols) [nM] | IC50 [nM] |
| --- | --- | --- |
| COc1cnc(C)c(/N=c2\[nH]c(=O)cc3n2C(c2ccc(F)cc2)CC3)c1 (centres unmarked) [Compound I-0079] | 10 to 100 |  |
| COc1nc(C)c(Nc2nc(=O)cc3n2C(c2ccccc2)CC3)cc1C (centres unmarked) [Compound I-0043] | < 10 |  |
| COCC(F)(F)c1ccc(C)c(NC2=NC(=O)N(C)C3=NCC(c4cc(F)c(F)c(F)c4)N23)c1 (centres unmarked) [Compound I-0205] | 10 to 100 |  |
| COc1cc(C)c(Nc2nc(=O)c(OC)c3n2C(c2ccccc2)CC3)cc1C (centres unmarked) [Compound I-0031] | 10 to 100 |  |
| CCN1C(=O)N=C(Nc2ccc(C)nc2C)N2C1=NCC2c1ccc(F)cc1 (centres unmarked) [Compound I-0112] | 500 to 1000 |  |
| Cc1ncc(CO)cc1NC1=NC(=O)N(C)C2=NCC(c3cc(F)c(F)c(F)c3)N12 (centres unmarked) [Compound I-0175] | 10 to 100 |  |
| Cc1nc2cc(C)c(Nc3nc(=O)cc4n3C(c3ccccc3)CN4)cc2s1 (centres unmarked) [Compound I-0100] |  | 12 |
| CCOc1ccc(/N=c2\[nH]c(=O)cc3n2C(c2ccc(F)cc2F)CC3)c(CC)n1 (centres unmarked) [Compound I-0075] | 10 to 100 |  |
| Cc1nc2cc(C)c(Nc3nc(=O)cc4n3C(c3ccc(F)cc3)CC4)cc2s1 (centres unmarked) [Compound I-0026] | < 10 |  |
| COc1cnc(C)c(Nc2nc(=O)cc3n2C(c2cc(F)cc(F)c2)CC3)c1 (centres unmarked) [Compound I-0071] | 10 to 100 |  |
| CCN1C(=O)N=C(Nc2cc(OC)c(OC)nc2C)N2C1=NCC2c1ccc(F)cc1 (centres unmarked) [Compound I-0118] | 100 to 500 |  |
| COc1ccc(Nc2nc(=O)c(-c3ccccc3)c3n2C(c2cc(F)cc(F)c2)CC3)c(C)n1 (centres unmarked) [Compound I-0089] | 10 to 100 |  |
| COc1nc(C)c(Nc2nc(=O)cc3n2C(c2ccc(F)cc2F)CC3)cc1F (centres unmarked) [Compound I-0084] | 10 to 100 |  |
| CCN1C(=O)N=C(Nc2cc(OC)c(OC)cc2C)N2C1=NCC2c1ccc(F)cc1 (centres unmarked) [Compound I-0138] | 10 to 100 |  |
| Cc1nc2cc(C)c(/N=c3\[nH]c(=O)c(F)c4n3C(c3ccc(F)cc3)CC4)cc2s1 (centres unmarked) [Compound I-0054] | < 10 |  |
| COc1ccc(NC2=NC(=O)N(C)C3=NCC(c4cc(F)c(F)c(F)c4)N23)c(C)n1 (centres unmarked) [Compound I-0143] | 10 to 100 |  |
| COc1cc(NC2=NC(=O)N(C)C3=NCC(c4ccc(F)cc4)N23)c(C)cc1F (centres unmarked) [Compound I-0150] |  | 18 |
| Cc1nc2cc(C)c(/N=c3\[nH]c(=O)cc4n3C(c3cc(F)cc(F)c3)CC4)cc2s1 (centres unmarked) [Compound I-0053] | 10 to 100 |  |
| COc1cc(C)c(Nc2nc(=O)cc3n2C(c2ccccc2)CC3)cc1F (centres unmarked) [Compound I-0024] | 10 to 100 |  |
| COc1nc(C)c(Nc2nc(=O)cc3n2C(c2cc(F)c(F)c(F)c2)CC3)cc1F (centres unmarked) [Compound I-0090] | 10 to 100 |  |
| Cc1ccc(NC2=NC(=O)N(C)C3=NCC(c4ccc(F)cc4)N23)c(C)n1 (centres unmarked) [Compound I-0120] | 100 to 500 |  |
| COc1cc(/N=c2\[nH]c(=O)cc3n2C(c2cc(F)cc(F)c2)CC3)c(C)cc1F (centres unmarked) [Compound I-0063] | 10 to 100 |  |
